The record followed here is patent publication EP0577143A2, “Solid and liquid solutions of flavonoids” (ALFATEC-PHARMA GmbH, priority 1992, dated 1994).

The data set in a line: Clinical bioavailability study: renal excretion of flavones over 24 h after oral rutin. The format is in vivo, gesunden Probanden. The settings on record: Rutin molecularly dispersed in gelatin, taken by volunteers. The text has this: Die nahrungsbedingte Flavonausscheidung wurde dabei berücksichtigt und durch entsprechende Diätvorschriften möglichst gering gehalten.
Die Analytik und Identifikation der Flavonausscheidungen kann z.B. wie folgt durchgeführt werden: • 1. Saure Spaltung ( 1 M Salzsäure) der in biologischen Flüssigkeiten (Urin) enthaltenen Flavonkonjugate. • 2. Festphasenextraktion mit Methanol zur Anreicherung der freigesetzten Flavone (z.B. Extrelut^R, Fa. Merck). • 3. HPLC-Analytik mit Diodenarray-Detektion und Identifizierung einzelner Flavone, zusätzlich elektrochemische Identifikation (anodisches Oxidationspotential).
Die Empfindlichkeit der genannten Analytik ist >10 ng Flavon pro ml.

On to `C[C@@H]1O[C@@H](OC[C@H]2O[C@@H](Oc3c(-c4ccc(O)c(O)c4)oc4cc(O)cc(O)c4c3=O)[C@H](O)[C@@H](O)[C@@H]2O)[C@H](O)[C@H](O)[C@H]1O` [Rutin], for which the Metaboliten in vivo entry is on record as “Quercetin, Kämpferol und Isorhamnetin”.
